Source: ChEMBL document CHEMBL1139745, “Synthesis and biological study of 4-aminopyrimidine-5-carboxaldehyde oximes as antiproliferative VEGFR-2 inhibitors” (Bioorg Med Chem Lett, 2006)

Columns and labels:
HeLa [1] = test: Antiproliferative activity against HeLa cells; assay type: functional, cell-based; details: Homo sapiens
HCT-116 = test: Antiproliferative activity against HCT116 cells; assay type: functional, cell-based; details: Homo sapiens
A-375 = test: Antiproliferative activity against A375 cells; assay type: functional, cell-based; details: Homo sapiens
[2] = biological target: Vascular endothelial growth factor receptor 2 (Homo sapiens, UniProt P35968); test: Inhibition of VEGFR2
Vascular endothelial growth factor receptor 2, sequence (P35968 whole entry): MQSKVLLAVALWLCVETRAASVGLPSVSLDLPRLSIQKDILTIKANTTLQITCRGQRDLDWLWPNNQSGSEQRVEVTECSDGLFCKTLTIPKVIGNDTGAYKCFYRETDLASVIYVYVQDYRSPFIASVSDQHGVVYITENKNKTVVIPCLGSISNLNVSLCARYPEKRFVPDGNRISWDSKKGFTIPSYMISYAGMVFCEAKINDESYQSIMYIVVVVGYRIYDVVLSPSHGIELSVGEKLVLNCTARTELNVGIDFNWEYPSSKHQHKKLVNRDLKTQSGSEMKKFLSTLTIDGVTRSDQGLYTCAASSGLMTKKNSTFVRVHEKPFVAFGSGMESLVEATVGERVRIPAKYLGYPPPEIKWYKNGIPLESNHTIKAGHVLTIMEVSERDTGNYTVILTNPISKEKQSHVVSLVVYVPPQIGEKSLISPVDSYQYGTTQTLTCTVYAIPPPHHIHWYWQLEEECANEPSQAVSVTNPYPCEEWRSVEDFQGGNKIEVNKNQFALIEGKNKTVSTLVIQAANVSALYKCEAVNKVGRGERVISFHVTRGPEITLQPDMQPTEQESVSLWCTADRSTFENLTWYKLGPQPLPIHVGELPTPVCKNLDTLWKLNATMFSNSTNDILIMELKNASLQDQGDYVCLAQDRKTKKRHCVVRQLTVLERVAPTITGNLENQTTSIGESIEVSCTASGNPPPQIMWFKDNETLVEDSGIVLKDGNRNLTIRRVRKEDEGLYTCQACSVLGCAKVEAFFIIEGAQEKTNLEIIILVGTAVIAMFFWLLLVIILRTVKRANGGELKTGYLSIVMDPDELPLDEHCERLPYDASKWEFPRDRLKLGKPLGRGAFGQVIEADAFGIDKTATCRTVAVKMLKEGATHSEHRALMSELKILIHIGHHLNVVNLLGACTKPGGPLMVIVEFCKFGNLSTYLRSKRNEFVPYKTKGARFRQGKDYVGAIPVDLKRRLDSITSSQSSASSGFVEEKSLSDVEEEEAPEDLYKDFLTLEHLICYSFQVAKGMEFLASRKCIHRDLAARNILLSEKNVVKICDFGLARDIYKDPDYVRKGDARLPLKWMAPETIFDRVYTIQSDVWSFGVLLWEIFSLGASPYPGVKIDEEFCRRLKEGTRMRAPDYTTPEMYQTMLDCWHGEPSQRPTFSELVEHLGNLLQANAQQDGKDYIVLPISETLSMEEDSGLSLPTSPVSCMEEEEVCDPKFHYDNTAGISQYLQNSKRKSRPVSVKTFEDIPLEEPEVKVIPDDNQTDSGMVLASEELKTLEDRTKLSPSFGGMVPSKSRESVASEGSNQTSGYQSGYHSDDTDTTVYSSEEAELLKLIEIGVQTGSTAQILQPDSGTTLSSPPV

HeLa [3] = test: Cell cycle arrest by accumulation at G2 phase in human HeLa cells at 62.5 nM; assay type: functional
HeLa [4] = test: Cell cycle arrest in human HeLa cells by accumulation at G1 phase at 62.5 nM; assay type: functional
HeLa [5] = test: Cell cycle arrest in human HeLa cells by accumulation at S phase at 62.5 nM; assay type: functional

Compound	IC50 (HeLa [1]) [nM]	IC50 (HCT-116) [nM]	IC50 (A-375) [nM]	IC50 [2] [nM]	Activity (HeLa [3]) [%]	Activity (HeLa [4]) [%]	Activity (HeLa [5]) [%]
CO/N=C/c1c(N)ncnc1Oc1ccc2[nH]cc(C)c2c1	306	385	132	–	–	–	–
Cc1cc2c(F)c(Oc3ncnc(N)c3/C=N/O)ccc2[nH]1	472	1140	492	33	–	–	–
CO/N=C/c1c(N)ncnc1Oc1ccc2cccnc2c1	1820	2620	886	–	–	–	–
COCCO/N=C/c1c(N)ncnc1Oc1ccc2[nH]c(C)cc2c1F	308	387	233	–	–	–	–
Cc1cc2c(F)c(Oc3ncnc(N)c3/C=N/OCc3ccccc3)ccc2[nH]1	266	311	62	–	–	–	–
COCCCO/N=C/c1c(N)ncnc1Oc1ccc2[nH]c(C)cc2c1F	346	438	300	–	–	–	–
CO/N=C/c1c(N)ncnc1Oc1ccc2c(ccn2C)c1	375	749	326	–	–	–	–
CNCCO/N=C/c1c(N)ncnc1Oc1ccc2[nH]c(C)cc2c1F	2010	3010	345	–	–	–	–
CO/N=C/c1c(N)ncnc1Oc1ccc2[nH]ccc2c1	1870	3520	783	–	–	–	–
CO/N=C/c1c(N)ncnc1Oc1ccc2ncccc2c1	3430	2870	1820	–	–	–	–
CCO/N=C/c1c(N)ncnc1Oc1ccc2[nH]c(C)cc2c1F	32	36	27	–	–	–	–
Cc1cc2c(F)c(Oc3ncnc(N)c3/C=N/OCC3CCCCC3)ccc2[nH]1	22700	16100	4920	–	–	–	–
Cc1cc2c(F)c(Oc3ncnc(N)c3/C=N/OCCCO)ccc2[nH]1	362	452	336	–	–	–	–
CO/N=C/c1c(N)ncnc1Oc1ccc2[nH]ccc2c1F	401	365	492	–	–	–	–
Cc1cc2c(F)c(Oc3ncnc(N)c3/C=N/OCCO)ccc2[nH]1	406	323	372	–	–	–	–
C=CCO/N=C/c1c(N)ncnc1Oc1ccc2[nH]c(C)cc2c1F	42	40	21	–	99.76	0.24	0
CCCO/N=C/c1c(N)ncnc1Oc1ccc2[nH]c(C)cc2c1F	40	30	28	–	–	–	–
CO/N=C/c1c(N)ncnc1Oc1ccc2[nH]c(C)cc2c1	388	386	356	–	–	–	–
CO/N=C/c1c(N)ncnc1Oc1cc2cc[nH]c2cc1F	382	422	327	–	–	–	–
Cc1cc2c(F)c(Oc3ncnc(N)c3/C=N/OCCN3CCCC3)ccc2[nH]1	4220	4610	2160	–	–	–	–
CCCCO/N=C/c1c(N)ncnc1Oc1ccc2[nH]c(C)cc2c1F	607	1000	446	–	–	–	–
